Tests used:
[1] = target: T1, P-gp (Homo sapiens, UniProt P08183); experiment: Rhodamine-123 uptake test on K562/DOX cells (flow cytometry); type: cell-based
T1 construct: doxorubicin resistant K562/DOX cell line overexpresses almost exclusively the transporter membrane protein P-gp; endogenous in cells; host or cells: K562/DOX (doxorubicin-selected human erythroleukemia cells)
Experimental: The results were expressed as the FR (fluorescence ratio), which is the ratio between the average fluorescence intensity of rhodamine in the presence and in the absence of modulators. Value 1 was attributed to the average fluorescence intensity of the samples exposed only to rhodamine.
An aliquot of cells (control) was incubated with the fluorochrome in the absence of inhibitors.
At the end of the uptake, cells were sedimented, washed twice in ice-cold PBS, placed in PBS on ice, and kept in the dark until flow cytometric analysis.
The histograms were generated by program GraphPad Prism 5 (GraphPad Prism software, Inc., San Diego, CA, USA); the data were obtained from the ratio between the average fluorescence intensity of the samples preincubated with the compounds under study and subsequently exposed to rhodamine, and the fluorescence of the sample exposed only to the rhodamine.

[2] = target: T2, hCA I (Homo sapiens, UniProt P00915); experiment: Stopped-flow CO2 hydrase assay, hCA I; type: biochemical; settings: mean from 3 assays
T2 construct: made in house
Experimental: (§1) An SX.18MV-R Applied Photophysics (Oxford, UK) stopped-flow instrument was used to assay the catalytic/inhibition of various CA isozymes. […] Saturated CO2 solutions in water at 25 °C were used as a substrate. Stock solutions of inhibitors were prepared at a concentration of 10 μM (in DMSO-water 1:1, v/v) and dilutions up to 0.01 nM done with the assay buffer mentioned above. […] Inhibitor and enzyme solutions were preincubated together for 10 min at room temperature prior to the assay, in order to allow for the formation of the E–I complex. […] The inhibition constants were obtained by non-linear least-squares methods using the Cheng–Prusoff equation, as reported earlier, and represent the mean from at least three different determinations. All CA isozymes used here were recombinant proteins obtained as reported earlier by our group.

[3] = target: T3, hCA II (Homo sapiens, UniProt P00918); experiment: Stopped-flow CO2 hydrase assay, hCA II; type: biochemical; settings: for Ki: stopped flow, mean from 3 assays; for hCA II vs. hCA XII preference: ratio of Ki values
T3 construct: made in house
Experimental: as §1

[4] = target: T4, hCA IX (Homo sapiens, UniProt Q16790); experiment: Stopped-flow CO2 hydrase assay, hCA IX; type: biochemical; settings: for Ki: stopped flow, mean from 3 assays
T4 construct: made in house
Experimental: as §1

[5] = target: T5, hCA XII (Homo sapiens, UniProt O43570); experiment: Stopped-flow CO2 hydrase assay, hCA XII; type: biochemical; settings: for Ki: stopped flow, mean from 3 assays
T5 construct: made in house
Experimental: as §1

T1 sequence (P08183 whole entry): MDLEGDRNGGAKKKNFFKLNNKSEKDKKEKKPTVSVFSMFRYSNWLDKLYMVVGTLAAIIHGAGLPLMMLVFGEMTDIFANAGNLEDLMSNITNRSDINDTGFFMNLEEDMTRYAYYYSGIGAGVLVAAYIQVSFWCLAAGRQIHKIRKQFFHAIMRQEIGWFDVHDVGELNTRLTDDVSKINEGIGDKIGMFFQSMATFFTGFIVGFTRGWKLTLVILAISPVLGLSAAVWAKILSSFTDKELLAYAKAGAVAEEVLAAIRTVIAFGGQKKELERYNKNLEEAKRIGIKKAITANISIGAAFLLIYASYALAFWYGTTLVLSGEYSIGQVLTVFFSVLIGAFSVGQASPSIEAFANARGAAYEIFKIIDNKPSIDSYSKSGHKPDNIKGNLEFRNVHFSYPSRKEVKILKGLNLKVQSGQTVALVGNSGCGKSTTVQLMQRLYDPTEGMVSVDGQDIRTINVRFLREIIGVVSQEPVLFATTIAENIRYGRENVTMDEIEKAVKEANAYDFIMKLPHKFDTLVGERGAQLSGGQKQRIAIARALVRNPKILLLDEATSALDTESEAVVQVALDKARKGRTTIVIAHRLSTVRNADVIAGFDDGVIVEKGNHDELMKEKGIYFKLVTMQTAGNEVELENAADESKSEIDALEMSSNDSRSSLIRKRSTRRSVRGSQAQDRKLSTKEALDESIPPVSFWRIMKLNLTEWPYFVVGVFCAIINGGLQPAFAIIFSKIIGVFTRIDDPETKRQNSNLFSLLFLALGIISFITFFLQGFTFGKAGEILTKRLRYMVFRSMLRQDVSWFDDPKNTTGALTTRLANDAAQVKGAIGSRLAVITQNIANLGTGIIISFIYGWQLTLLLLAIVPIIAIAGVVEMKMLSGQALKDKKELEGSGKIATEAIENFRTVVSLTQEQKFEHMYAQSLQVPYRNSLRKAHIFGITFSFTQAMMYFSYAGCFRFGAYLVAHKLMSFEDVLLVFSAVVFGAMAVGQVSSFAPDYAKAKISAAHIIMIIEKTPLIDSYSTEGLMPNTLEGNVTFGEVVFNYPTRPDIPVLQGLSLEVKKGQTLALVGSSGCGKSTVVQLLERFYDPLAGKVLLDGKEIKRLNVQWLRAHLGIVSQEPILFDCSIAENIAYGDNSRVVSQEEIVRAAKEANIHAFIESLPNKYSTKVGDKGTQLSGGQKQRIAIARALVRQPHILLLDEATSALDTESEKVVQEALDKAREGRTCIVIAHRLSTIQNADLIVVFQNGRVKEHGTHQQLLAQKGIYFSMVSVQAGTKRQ
T5 sequence (O43570 25-354): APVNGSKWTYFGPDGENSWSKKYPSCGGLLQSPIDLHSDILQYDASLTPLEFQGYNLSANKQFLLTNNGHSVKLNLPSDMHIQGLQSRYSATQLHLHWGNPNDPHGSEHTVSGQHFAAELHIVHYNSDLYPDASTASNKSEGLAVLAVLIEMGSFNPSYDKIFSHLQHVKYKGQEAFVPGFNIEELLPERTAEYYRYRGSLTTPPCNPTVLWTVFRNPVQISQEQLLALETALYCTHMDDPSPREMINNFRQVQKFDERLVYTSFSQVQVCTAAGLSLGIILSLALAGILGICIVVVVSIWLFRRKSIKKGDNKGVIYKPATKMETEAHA
T2 sequence (P00915 whole entry): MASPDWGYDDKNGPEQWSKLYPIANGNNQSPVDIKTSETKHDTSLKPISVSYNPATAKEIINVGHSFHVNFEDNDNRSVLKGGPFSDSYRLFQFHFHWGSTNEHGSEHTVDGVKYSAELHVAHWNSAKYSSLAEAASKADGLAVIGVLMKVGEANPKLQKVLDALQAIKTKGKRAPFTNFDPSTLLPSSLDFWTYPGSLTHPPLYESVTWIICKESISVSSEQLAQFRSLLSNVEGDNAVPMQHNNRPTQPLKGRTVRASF

| hCA II vs. hCA XII preference [3] [times] | more potent on hCA IX than on hCA XII ([4]; ratio of Ki values) | SMILES | FR (fluorescence ratio, Rhd 123 uptake with/without modulator) ([1]; compound 3 µM) | FR (fluorescence ratio, Rhd 123 uptake with/without modulator) ([1]; compound 30 µM) | Ki [2] [nM] | Ki [3] [nM] | Ki [4] [nM] | Ki [5] [nM] | preference for hCA XII with respect to hCA IX ([5]; ratio of Ki values) |
| --- | --- | --- | --- | --- | --- | --- | --- | --- | --- |
|  |  | COc1cc(/C=C/C(=O)OCCCN(C)CCCOC(=O)COc2ccc3ccc(=O)oc3c2)cc(OC)c1OC [Compound 1, (E)-3-(methyl(3-(2-((2-oxo-2H-chromen-7-yl)oxy)acetoxy)propyl)amino)propyl 3-(3,4,5-trimethoxyphenyl)acrylate] | 1.44 | 4.76 | > 10000 | > 10000 | 142 | 9.3 |  |
|  |  | COc1cc(/C=C/C(=O)OCCCCCN(C)CCCOC(=O)COc2ccc3ccc(=O)oc3c2)cc(OC)c1OC [Compound 3, (E)-5-(methyl(3-(2-((2-oxo-2H-chromen-7-yl)oxy)acetoxy)propyl)amino)pentyl 3-(3,4,5-trimethoxyphenyl)acrylate] | 1.00 | 2.58 | > 10000 | > 10000 | 54.6 | 48.8 |  |
|  |  | COc1cc(/C=C/C(=O)OCCCCCN(C)CCCCCOC(=O)COc2ccc3ccc(=O)oc3c2)cc(OC)c1OC [Compound 4, (E)-5-(methyl(5-(2-((2-oxo-2H-chromen-7-yl)oxy)acetoxy)pentyl)amino)pentyl 3-(3,4,5-trimethoxyphenyl)acrylate] | 1.99 | 5.45 | > 10000 | > 10000 | 26.6 | 18.9 |  |
|  |  | COc1cc(/C=C/C(=O)OCCCCCCN(C)CCCCOC(=O)COc2ccc3ccc(=O)oc3c2)cc(OC)c1OC [Compound 6, (E)-6-(methyl(4-(2-((2-oxo-2H-chromen-7-yl)oxy)acetoxy)butyl)amino)hexyl 3-(3,4,5-trimethoxyphenyl)acrylate] | 1.39 | 1.98 | > 10000 | > 10000 | 40.2 | 36.4 |  |
|  |  | COc1cc(C(=O)OCCCN(C)CCCCCOC(=O)COc2ccc3ccc(=O)oc3c2)cc(OC)c1OC [Compound 9, 3-(methyl(5-(2-((2-oxo-2H-chromen-7-yl)oxy)acetoxy)pentyl)amino)propyl 3,4,5-trimethoxy benzoate] | 1.00 | 3.95 | > 10000 | > 10000 | 133 | 9.2 |  |
|  |  | COc1cc(C(=O)OCCCCCCN(C)CCCOC(=O)COc2ccc3ccc(=O)oc3c2)cc(OC)c1OC [Compound 10, 6-(methyl(3-(2-((2-oxo-2H-chromen-7-yl)oxy)acetoxy)propyl)amino)hexyl 3,4,5-trimethoxy benzoate] | 1.16 | 2.18 | > 10000 | > 10000 | 103 | 8.9 |  |
|  |  | COc1cc(C(=O)OCCCCCCCN(C)CCOC(=O)COc2ccc3ccc(=O)oc3c2)cc(OC)c1OC [Compound 11, 7-(methyl(2-(2-((2-oxo-2H-chromen-7-yl)oxy)acetoxy)ethyl)amino)heptyl 3,4,5-trimethoxy benzoate] | 1.11 | 1.58 | > 10000 | > 10000 | 97.1 | 8.3 |  |
|  |  | CN(CCCCCOC(=O)COc1ccc2ccc(=O)oc2c1)CCCOC(=O)c1c2ccccc2cc2ccccc12 [Compound 12, 3-(methyl(5-(2-((2-oxo-2H-chromen-7-yl)oxy)acetoxy)pentyl)amino)propyl anthracene-9-carboxylate] | 1.00 | 2.53 | > 10000 | > 10000 | 151 | 45.7 |  |
|  |  | CN(CCCCCCOC(=O)c1c2ccccc2cc2ccccc12)CCCOC(=O)COc1ccc2ccc(=O)oc2c1 [Compound 13, 6-(methyl(3-(2-((2-oxo-2H-chromen-7-yl)oxy)acetoxy)propyl)amino)hexyl anthracene-9-carboxylate] | 1.43 | 2.45 | > 10000 | > 10000 | 82.7 | 9.1 | nine |
|  |  | CN(CCCCCCCOC(=O)c1c2ccccc2cc2ccccc12)CCOC(=O)COc1ccc2ccc(=O)oc2c1 [Compound 14, 7-(methyl(2-(2-((2-oxo-2H-chromen-7-yl)oxy)acetoxy)ethyl)amino)heptyl anthracene-9-carboxylate] | 1.25 | 4.22 | > 10000 | > 10000 | 126 | 42.9 |  |
|  |  | COc1cc(/C=C/C(=O)OCCCN(C)CCCOC(=O)c2ccc(S(N)(=O)=O)cc2)cc(OC)c1OC [Compound 15, (E)-3-(methyl(3-((3-(3,4,5-trimethoxyphenyl)acryloyl)oxy)propyl)amino)propyl 4-sulfamoyl benzoate] | 1.00 | 2.30 | 55.1 | 152 | 178 | 91 |  |
|  |  | COc1cc(/C=C/C(=O)OCCCN(C)CCCCCOC(=O)c2ccc(S(N)(=O)=O)cc2)cc(OC)c1OC [Compound 16, (E)-5-(methyl(3-((3-(3,4,5-trimethoxyphenyl)acryloyl)oxy)propyl)amino)pentyl 4-sulfamoyl benzoate] | 1.08 | 1.83 | 447 | 555 | 211 | 94.3 |  |
|  |  | COc1cc(/C=C/C(=O)OCCCCCN(C)CCCOC(=O)c2ccc(S(N)(=O)=O)cc2)cc(OC)c1OC [Compound 17, (E)-3-(methyl(5-((3-(3,4,5-trimethoxyphenyl)acryloyl)oxy)pentyl)amino)propyl 4-sulfamoyl benzoate] | 1.13 | 3.90 | 56.6 | 204 | 215 | 33.1 |  |
|  |  | COc1cc(/C=C/C(=O)OCCCCCN(C)CCCCCOC(=O)c2ccc(S(N)(=O)=O)cc2)cc(OC)c1OC [Compound 18, (E)-5-(methyl(5-((3-(3,4,5-trimethoxyphenyl)acryloyl)oxy)pentyl)amino)pentyl 4-sulfamoyl benzoate] | 1.00 | 4.99 | 62.6 | 425 | 226 | 62.6 |  |
| 7 |  | COc1cc(/C=C/C(=O)OCCCCCCN(C)CCCOC(=O)c2ccc(S(N)(=O)=O)cc2)cc(OC)c1OC [Compound 19, (E)-3-(methyl(6-((3-(3,4,5-trimethoxyphenyl)acryloyl)oxy)hexyl)amino)propyl 4-sulfamoyl benzoate] | 1.06 | 3.23 | 510 | 8.4 | 39.7 | 58.6 |  |
| 3 |  | COc1cc(/C=C/C(=O)OCCCCCCN(C)CCCCOC(=O)c2ccc(S(N)(=O)=O)cc2)cc(OC)c1OC [Compound 20, (E)-4-(methyl(6-((3-(3,4,5-trimethoxyphenyl)acryloyl)oxy)hexyl)amino)butyl 4-sulfamoyl benzoate] | 1.01 | 2.58 | 84.5 | 14 | 33.9 | 41.7 |  |
|  |  | COc1cc(/C=C/C(=O)OCCCCCCCN(C)CCCCCCCOC(=O)c2ccc(S(N)(=O)=O)cc2)cc(OC)c1OC [Compound 22, (E)-7-(methyl(7-((3-(3,4,5-trimethoxyphenyl)acryloyl)oxy)heptyl)amino)heptyl 4-sulfamoyl benzoate] | 2.85 | 3.20 | 73.7 | 445 | 172 | 96.7 |  |
|  | twice | COc1cc(C(=O)OCCCN(C)CCCCCOC(=O)c2ccc(S(N)(=O)=O)cc2)cc(OC)c1OC [Compound 23, 3-(methyl(5-((4-sulfamoylbenzoyl)oxy)pentyl)amino)propyl 3,4,5-trimethoxybenzoate] | 1.00 | 1.66 | 284 | 128 | 26.6 | 63.7 |  |
